Measurements published in patent US20060252707A1, “Pharmaceutical composition for the treatment and/or the prevention of atherosclerosis from infectious origin” (UNIVERSITE DE LIEGE, priority 2003, published 2006).
“Also recorded” adds a separate entry of the source.

Columns and labels:
[1] = test system: THP-1 cells conditioned with Chlamydia pneumoniae; experiment: Oxidant activity (ethylene production from KMB, gas liquid chromatography) of THP-1 cells conditioned with Chlamydia pneumoniae, then stimulated by PMA; format: cell-based, human; settings: for Ethylene: % of THP-1 + Chlamydia
Method: This model has been described in details in Mouithys Mickalad et al. (Biochem Biophys Res Comm 2001, 287: 781-788). Treatment of the Cells with Chlamydia pneumoniae:
The monocytes (in multiwell plates, 2×10^6 cells/well) are conditioned by a pre-incubation of 19 hours with elementary bodies of Chlamydia pneumoniae (at a dose equivalent to a mean endotoxin concentration of 3.3 pg). The elementary bodies are obtained by Chlamydia culture in MacCoy cells (American Type Culture Collection, Rockville, USA).
After incubation with C. pneumoniae, the cells are washed and detached from the wells; they are put in sterile vials and an oxidable substrate, α-keto-methyl butyric acid (KMB) at 10^−3 M, is added. The vial is sealed and the following reagents are added by needle puncture. through the septum: 200 U horseradish peroxidase (HRP) and 10^−7 M phorbol myristate acetate (PMA).
PMA is a monocyte activator, enhancing the superoxide anion production by these cells. Superoxide anion dismutates into hydrogen peroxide (H2O2), which is used by HRP to form more oxidant species, able to oxidize KMB, releasing ethylene. After 3 hours of incubation at 37° C, ethylene, which has accumulated in the gaseous phase of the sealed vial is measured by gas liquid chromatography, on a Porapak T column (TM) equipped with flame ionisation detector. These assays can be made with the prior addition of a reagent able to inhibit or to stimulate the monocytes, the reagent being added, either at pre-incubation (at the same time as the Chlamydia EB), or at the moment of PMA activation.

[2] = test system: nuclear transcription factor kappaB (NF-κB); experiment: Activation of NF-κB (binding to DNA) by electrophoretic mobility shift assay in THP-1 cells pre-incubated with Chlamydia; format: cell-based, human; settings: THP-1 + Chlamydia, % of THP-1 without preincubation with C pneumoniae (FIG. 7)
Method: FIG. 7 represents the effects of pre-incubation with Chlamydia on the activity of the nuclear transcription factor kappaB (NF-kB) (column 2). NF-kB is expressed in % of column 1 (THP-1 cells without preincubation with C pneumoniae)
The activation of NF-κB was measured by the technique of <<electrophoretic mobility shift assay>> (EMSA) (Schoonbroodt et al., 2000, J Immunol. 164: 4292-4300; Nys et al., 2003, Nitric Oxide 9: 33-43) (FIG. 7). The activation of NF-κB is expressed in % of control cells (cells which have not been pre-incubated with Chlamydia) (column 1). The incubation of monocytes with C. pneumoniae activates the NF-κB binding to DNA (FIG. 7, column 2).

[3] = Dunnick et al.; cited from earlier work
THP-1 cells = experiment: Microscopy of monocyte transformation into macrophages under Chlamydia pneumoniae; format: cell-based, human
Method: Incubation of THP-1 cells with C. pneumoniae induces the differentiation of monocytes (round floating cells, […] diameter; FIG. 1, 1) into macrophages, amiboid cells, which are larger than monocytes (30-50 μm diameter) and adhere to the support (FIGS. 1,2). Monocytes are stained with Giemsa and May-Grunwald stains (Merck, Germany) (Chemical methods of medical investigation, 1964, 10th edition by E. Merck AG. Darmstadt, Germany) and macrophages are observed by phase contrast microscopy.

THP-1 cell line = experiment: Model of foam cell formation from THP-1 monocytes (Chlamydia pneumoniae, then LDL or liposomes, Oil Red O); format: cell-based, human; settings: 10^−5 M; LDL
Method: A model of foam cell formation from monocytes (THP-1 cell line) was developed. The cells are incubated for 19 hours with Chlamydia pneumoniae. This incubation is followed by the addition of human LDL or liposomes, and another incubation period of 48 hours. At the end of this second period of incubation, the cells are fixed and stained with oil Red O (Sigma, Belgium) (Smirnova et al., 2004, Am J Physiol Heart Circ Physiol. March 11 (Epub ahead of print) to highlight the foam cells. When drugs are used in this model, they are added at the same time as the LDL or liposomes. LDL are prepared from human blood drawn on EDTA. They are isolated by sequential flotation centrifugation with increased concentrations of KBr. After their isolation, LDL are dialysed, sterilised by filtration and their purity is confirmed by electrophoresis. Liposomes are lipid vesicles prepared by extrusion with cholesterol esters and phospholipids, mimicking lipoproteins.

superoxide anion = experiment: EPR spin-trapping of superoxide anion produced by Chlamydia-conditioned, PMA stimulated THP-1 cells; format: cell-based, human; settings: 10 μM DPI; FIG. 5 lines I-5 and II-4; PMA 5×10^−7 M
Text: Monocytes are conditioned by Chlamydia. The formation of this species was monitored by electron paramagnetic resonance, using spin-trapping agents.

[4] = drug added at cell conditioning with Chlamydia (pre-incubation 19 hours), then PMA 10^−7 M
[5] = not pre-incubated, added directly before the stimulation by PMA

Question: With Oc1ccc(/C=C/c2ccccc2)cc1 [trans-4-stilbene, trans-4-hydrostilbene] as the molecule, how does the Ethylene ([1]; FIG. 22, drug alone 10^−4 M, pre-incubation with Chlamydia) read?
Answer: 1.8%

Question: And the Ethylene ([1]; FIG. 22, drug alone 10^−5 M, pre-incubation with Chlamydia)?
Answer: 14.0%

Question: Which Ethylene ([1]; FIG. 21, drug alone 10^−4 M, pre-incubation with Chlamydia) does the source give for CC/C(=C(/CC)c1ccc(O)cc1)c1ccc(O)cc1 [bertrol, trans-α-α-diethyl-p,p′-stilbenediol] here?
Answer: 1.6%

Question: And the Ethylene ([1]; FIG. 21, drug alone 10^−5 M, pre-incubation with Chlamydia)?
Answer: 32.0%

Question: What does the source list for C[C@]12CC[C@@H]3c4ccc(O)cc4CC[C@H]3[C@@H]1CC[C@@H]2O [estradiol]?
Answer: Ethylene ([1]; FIG. 10, 10^−4 M not pre-incubated (added just before PMA)): 2.6%; Ethylene ([1]; FIG. 10, 10^−4 M pre-incubated with Chlamydia): 140.0%; Ethylene ([1]; FIG. 10, 10^−5 M not pre-incubated (added just before PMA)): 2.9%; Ethylene ([1]; FIG. 10, 10^−5 M pre-incubated with Chlamydia): 133.0%; Ethylene ([1]; FIG. 10, 10^−6 M not pre-incubated (added just before PMA)): 7.8%; Ethylene ([1]; FIG. 10, 10^−6 M pre-incubated with Chlamydia): 85.0%

Question: Which results are given for Oc1cc(O)cc(C=Cc2ccc(O)c(O)c2)c1 [piceatanol, 3,4,3′,5′tetrahydrostilbene]?
Answer: Ethylene ([1]; FIG. 20, drug alone 10^−4 M, pre-incubation with Chlamydia): 0.4%; Ethylene ([1]; FIG. 20, drug alone 10^−5 M, pre-incubation with Chlamydia): 57.0%

Question: Which “effect on oxidant activity / oxidation rate” value [1, 4] does the source give for CC(=O)c1ccc2c(c1)N(CCCN(C)C)c1ccccc1S2 [acepromazine] here?
Answer: little or no effect

Question: Which results are given for tocopherol?
Answer: Ethylene ([1]; FIG. 11 column 4, 10^−4 M pre-incubated): 147.0%; Ethylene ([1]; FIG. 11 column 5, 10^−6 M pre-incubated (so in the source)): 133.0%; Ethylene ([1]; FIG. 11 column 6, 10^−6 M pre-incubated): 87.0%; Ethylene ([1]; FIG. 11 column 7, 10^−4 M not pre-incubated (added just before PMA)): 2.4%; Ethylene ([1]; FIG. 11 column 8, 10^−5 M not pre-incubated (added just before PMA)): 2.5%; Ethylene ([1]; FIG. 11 column 9, 10^−6 M not pre-incubated (added just before PMA)): 77.0%; effect on oxidant activity / oxidation rate [1, 4]: favouring the oxidation rate; effect on oxidant activity / oxidation rate ([1]; drug added at cell conditioning with Chlamydia (pre-incubation 19 hours), then PMA 10^−7 M, listed as vitamin E (tocopherol)): little or no effect; effect on ethylene production [1, 5]: quite completely inhibit the ethylene production

Question: What does the source list for C[C@H]1C[C@@H]2[C@H]([C@@H](O)C[C@@]3(C)[C@H]2CC[C@]3(O)C(=O)CO)[C@@]2(C)C=CC(=O)C=C12 [MPL, methylprednisolone]?
Answer: NF-κB relative value (%) ([2]; 10^−5 M): 417%; NF-κB relative value (%) ([2]; 10^−6 M): 450%

Question: Which results are given for O=c1c(O)c(-c2ccc(O)c(O)c2)oc2cc(O)cc(O)c12 [Quercetin, quercetin]?
Answer: concentrations at which toxicity does not exist [3]: ≤ 10^−4 M; effect on oxidant activity / oxidation rate ([1]; 10^−4 M, pre-incubated with Chlamydia): active; also recorded: inhibitor; Ethylene ([1]; FIG. 12, 10^−4 M incubated together with Chlamydia): 2.0%; Ethylene ([1]; FIG. 12, 10^−4 M not incubated (added just before PMA)): 3.7%; Ethylene ([1]; FIG. 12, 10^−5 M incubated together with Chlamydia): 100.0%; Ethylene ([1]; FIG. 12, 10^−5 M not incubated (added just before PMA)): 1.2%; Ethylene ([1]; FIG. 12, 10^−6 M incubated together with Chlamydia): 131.0%; Ethylene ([1]; FIG. 12, 10^−6 M not incubated (added just before PMA)): 6.6%; effect on ethylene production [1, 5]: quite completely inhibit the ethylene production

Question: With Oc1ccc(/C=C/c2cc(O)cc(O)c2)cc1 [Resveratrol, trans-reveratrol] as the molecule, how does the “inhibition of the monocyte transformation into macrophages” value (THP-1 cells; at 10^−4 M) read?
Answer: nearly complete

Question: And the “inhibition of the monocyte transformation into macrophages” value (THP-1 cells; at 10^−5 M)?
Answer: partial

Question: And the “effect on transformation into foam cells” value (THP-1 cell line)?
Answer: completely inhibits

Question: And the Ethylene ([1]; FIG. 19, drug alone 10^−4 M, pre-incubation with Chlamydia)?
Answer: 18.3%

Question: And the Ethylene ([1]; FIG. 19, drug alone 10^−5 M, pre-incubation with Chlamydia)?
Answer: 35.8%

Question: What about the “effect on oxidant activity / oxidation rate” value [1, 4] of the same molecule?
Answer: reduces the oxidizing activity of THP-1 cells

Question: And the “effect on ethylene production” value [1, 5]?
Answer: inhibiting capacity is still more marked

Question: For c1ccc([I+]c2ccccc2)cc1 [DPI, diphenyl iodonium], which “effect on EPR signal of superoxide anion” value (superoxide anion) is on record?
Answer: suppresses

Question: And the “effect on ethylene production” value ([1]; DPI 5 μM, FIG. 3 column 7, PMA 10^−7 M)?
Answer: inhibits almost totally

Question: Which “effect on oxidant activity / oxidation rate” value [1, 4] does the source give for COc1cc(C(C)=O)ccc1O [apocyanine, apocynine] here?
Answer: little or no effect
